Converted amounts (≈) assume the structure as drawn. Like-named read-outs stand apart in the source and are kept apart here. Numbered stars: 1 amine (or outer) side, 2 acyl side, 3 side chain; on linkers, the order of the positions; unused ones are H or OH. Bridge positions count the residues as written; N and C are the ends. Square brackets hold non-standard residues; d marks the D form. Peptide text beside a SMILES is read from it. * marks the point of attachment. ξ: configuration not given here. X1 = CCC1CC(C(=O)[*:2])N([*:1])C1; Butanoyl(2-oxo) = CCC(=O)C(=O)*; NMeAhp(2) = CCCCC[CH](NC)C(=O)O; ξPro(4ξ-Me) = CC1CNC(C(=O)O)C1; NMeT = CN[CH](C(=O)O)[CH](C)O; NMeL = CN[CH](CC(C)C)C(=O)O; hLeu = CC(C)CC[CH](N)C(=O)O; NMeV = CN[CH](C(=O)O)C(C)C; X2 = CCC(O)C(=O)*
Assays:
[1] = system: Mycobacterium smegmatis ATCC 607; assay: Minimal inhibitory concentration (MIC), Mycobacterium smegmatis ATCC 607; details: Mycolicibacterium smegmatis, ATCC607, 168 h
[2] = system: Klebsiella pneumoniae PCI 602; assay: MIC, Klebsiella pneumoniae PCI 602; details: PCI602, 24 h
[3] = system: Xanthomonas oryzae SANK 70274; assay: microbe, parasite or virus in culture; assay type: cell-based; details: SANK70274, 72 h
[4] = system: Piricularia oryzae SANK 16975; assay: microbe, parasite or virus in culture; assay type: cell-based; details: 48 h
[5] = system: Trichophyton mentagrophytes SANK 22374; assay: MIC, Trichophyton mentagrophytes SANK 22374; assay type: cell-based
Proteus vulgaris OX19 = assay: MIC, Proteus vulgaris OX19; details: OX19, 24 h
[6] = system: Pseudomonas aeruginosa SANK 73860; assay: MIC, Pseudomonas aeruginosa SANK 73860; details: SANK73860, 24 h
Solubility = details: for Solubility: soluble in: organic solvents; for Solubility: insoluble in: water and, where named, other solvents
Micrococcus luteus = assay: MIC, Micrococcus luteus; details: 24 h
Proteus mirabilis 1331 = assay: MIC, Proteus mirabilis 1331; details: Proteus mirabilis, 1331, 24 h
[7] = system: Penicillium chrysogenum SANK 12768; assay: MIC, Penicillium chrysogenum SANK 12768; assay type: cell-based
[8] = system: Aspergillus oryzae SANK 11262; assay: MIC, Aspergillus oryzae SANK 11262; assay type: cell-based
[9] = system: Bacillus subtilis PCI 219; assay: MIC, Bacillus subtilis PCI 219; details: PCI219, 24 h
Candida albicans Yu 1200 = assay: MIC, Candida albicans Yu 1200; assay type: cell-based
[10] = system: Escherichia coli NIHJ JC-2; assay: MIC, Escherichia coli NIHJ JC-2; details: NIHJJC2, 24 h
[11] = system: Staphylococcus aureus 209P JC-1; assay: MIC, Staphylococcus aureus 209P JC-1; details: 24 h
[12] = system: microorganisms of the genus Mycobacterium; details: earlier applications on Mycoplanecin A; cited from earlier work

CCCCCC1C(=O)NCC(=O)OC(C)C(N(C)C(=O)C2CC(CC)CN2)C(=O)NC(CC(C)C)C(=O)N2CC(C)CC2C(=O)NC(CCC(C)C)C(=O)N(C)C(C(C)C)C(=O)N2CCCC2C(=O)N1C (stereo not drawn) [Compound (IIIb)] (H-[X1][NMeT]L[ξPro(4ξ-Me)][hLeu][NMeV]P[NMeAhp(2)]G; ester 2-C; configuration not given here)
MIC [1]: 6.25 mg/L (≈ 6.25 µM)

CCC(=O)C(=O)N(C)C(C(=O)N1CC(C)CC1C(=O)N(C)C1C(=O)NC(CC(C)C)C(=O)N2CC(C)CC2C(=O)NC(CCC(C)C)C(=O)N(C)C(C(C)C)C(=O)N2CCCC2C(=O)N(C)C(CC(C)C)C(=O)NCC(=O)OC1C)C(C)C (stereo not drawn) [Mycoplanecin B]
MIC [2]: > 400 mg/L | MIC ([3]; read-out: MIC): 12.5 mg/L (≈ 10.7 µM) | MIC [4]: > 400 mg/L | MIC ([5]; SANK22374, 48 h): > 400 mg/L | MIC (Proteus vulgaris OX19): > 400 mg/L | MIC [6]: > 400 mg/L | Solubility: soluble in (Solubility): Soluble in methanol, ethanol, ethyl acetate, acetone and chloroform | Solubility: insoluble in (Solubility): Insoluble in water | MIC (Micrococcus luteus): 0.0125 mg/L (≈ 0.0107 µM) | MIC (Proteus mirabilis 1331): > 400 mg/L | MIC ([7]; SANK12768, 48 h): > 400 mg/L | MIC [1]: 0.05 mg/L (≈ 0.0428 µM) | MIC ([8]; SANK11262, 48 h): > 400 mg/L | MIC [9]: > 400 mg/L | MIC (Candida albicans Yu 1200; YU1200, 48 h): > 400 mg/L | MIC [10]: > 400 mg/L | MIC [11]: > 400 mg/L

CCC(=O)C(=O)N(C)C(C(=O)N1CC(CC)CC1C(=O)N(C)C1C(=O)NC(CC(C)C)C(=O)N2CC(C)CC2C(=O)NC(CCC(C)C)C(=O)N(C)C(C(C)C)C(=O)N2CCCC2C(=O)N(C)C(CC(C)C)C(=O)NCC(=O)OC1C)C(C)C (stereo not drawn) [Mycoplanecin A] ({Butanoyl(2-oxo)}-[NMeV][X1][NMeT]L[ξPro(4ξ-Me)][hLeu][NMeV]P[NMeL]G; ester 3-C; configuration not given here)
antibacterial activity [12]: antibacterial activity, especially against microorganisms of the genus Mycobacterium

CCC(O)C(=O)N(C)C(C(=O)N1CC(C)CC1C(=O)N(C)C1C(=O)NC(CC(C)C)C(=O)N2CC(C)CC2C(=O)NC(CCC(C)C)C(=O)N(C)C(C(C)C)C(=O)N2CCCC2C(=O)N(C)C(CC(C)C)C(=O)NCC(=O)OC1C)C(C)C (stereo not drawn) [Compound (IIa)]
MIC [1]: 0.05 mg/L (≈ 0.0427 µM)

CC(C)CCC1NC(=O)C2CC(C)CN2C(=O)C(CC(C)C)NC(=O)C(N(C)C(=O)C2CC(C)CN2)C(C)OC(=O)CNC(=O)C(CC(C)C)N(C)C(=O)C2CCCN2C(=O)C(C(C)C)N(C)C1=O (stereo not drawn) [Compound (IIb)]
MIC [1]: 6.25 mg/L (≈ 6.43 µM)

CCCCCC1C(=O)NCC(=O)OC(C)C(N(C)C(=O)C2CC(CC)CN2C(=O)C(C(C)C)N(C)C(=O)C(=O)CC)C(=O)NC(CC(C)C)C(=O)N2CC(C)CC2C(=O)NC(CCC(C)C)C(=O)N(C)C(C(C)C)C(=O)N2CCCC2C(=O)N1C (stereo not drawn) [Mycoplanecin C] ({Butanoyl(2-oxo)}-[NMeV][X1][NMeT]L[ξPro(4ξ-Me)][hLeu][NMeV]P[NMeAhp(2)]G; ester 3-C; configuration not given here)
MIC [2]: > 400 mg/L | MIC [3]: 12.5 mg/L (≈ 10.4 µM) | MIC [4]: > 400 mg/L | MIC ([5]; SANK22374, medium S: 48 hours at 26° C. in Sabouraud's agar, read-out: MIC): > 400 mg/L | MIC (Proteus vulgaris OX19): > 400 mg/L | MIC [6]: > 400 mg/L | Solubility: soluble in (Solubility): Soluble in methanol, ethanol, ethyl acetate, acetone and chloroform | Solubility: insoluble in (Solubility): Insoluble in water | MIC (Micrococcus luteus): 0.0125 mg/L (≈ 0.0104 µM) | MIC (Proteus mirabilis 1331): > 400 mg/L | MIC ([7]; SANK12768, medium S: 48 hours at 26° C. in Sabouraud's agar, read-out: MIC): > 400 mg/L | MIC [1]: 0.05 mg/L (≈ 0.0418 µM) | MIC ([8]; SANK11262, medium S: 48 hours at 26° C. in Sabouraud's agar, read-out: MIC): > 400 mg/L | MIC [9]: > 400 mg/L | MIC (Candida albicans Yu 1200; YU1200, medium S: 48 hours at 26° C. in Sabouraud's agar, read-out: MIC): > 400 mg/L | MIC [10]: > 400 mg/L | MIC [11]: > 400 mg/L

CCCCCC1C(=O)NCC(=O)OC(C)C(N(C)C(=O)C2CC(CC)CN2C(=O)C(C(C)C)N(C)C(=O)C(O)CC)C(=O)NC(CC(C)C)C(=O)N2CC(C)CC2C(=O)NC(CCC(C)C)C(=O)N(C)C(C(C)C)C(=O)N2CCCC2C(=O)N1C (stereo not drawn) [Compound (IIIa)] (X2-[NMeV][X1][NMeT]L[ξPro(4ξ-Me)][hLeu][NMeV]P[NMeAhp(2)]G; ester 3-C; configuration not given here)
MIC [1]: 0.05 mg/L (≈ 0.0417 µM)

Source: patent US4370266A, “Mycoplanecin derivatives and their preparation” (Sankyo Company, Limited, priority 1980, dated 1983)
